Test results as given in patent publication US20260027118A1, “COMPOSITIONS USEFUL FOR MODULATING SPLICING” (Skyhawk Therapeutics, Inc., priority 2022, published 2026).

Assays:
[1] = tested on: ATXN3 transcripts containing exon 4; test: ATXN3 Quantitative Splicing Assay (qPCR, E4E5 primers/probe); assay type: cell-based, Human; conditions: SK-N-MC cells, treated with compounds for 24 h, qPCR of transcripts containing exon 4
Protocol: Human neuroblastoma SK-N-MC cells were plated in 384-well plates at 20,000 cells/well. Twenty-four hours after plating, cells were treated with compounds for 24 h at appropriate concentrations ranging from 30.M to 0.6 nM (0.300 DMS0). Treated cells were lysed in 15 μL of lysis buffer, and cDNA was synthesized using the Fast Advanced Cells-to-Ct kit. Two μL of each cDNA was used in qPCR reactions to confirm the exon 4 skipped transcripts of ATXN3. A second set of primers/probe E4E5 was used to detect the transcripts containing exon 4. The third set of primers/probe E8E9 was used to detect total gene level of ATXN3. The qPCR reactions were prepared in 384-well plates in 10 μL volume, using TaqMan™ Fast Advanced Master Mix with primers and probes shown in the table below. Reactions were run in a Quant Studio 6 qPCR instrument with default settings.
The primers and probes are listed below in Table 4.

[2] = tested on: total ATXN3 protein; test: ATXN3 total protein assay (Mesoscale Discovery); assay type: cell-based, Human; conditions: SK-N-MC cells, 48 hours incubation, MSD assay
Protocol: Human neuroblastoma SK-N-MC cells were seeded at 10,000 cells/well in 384 well plates one day prior to compound treatment. The concentrations of compounds were tested at appropriate doses ranging from 30 μM to 0.6 nM. After incubation for 48 hours, the cells were lysed with 25 μL of lysis buffer containing protease inhibitors, and total ATXN3 protein levels were assessed by Mesoscale Discovery (MSD) assay developed with one pair of anti-ATXN3 antibodies. The capture and detect antibodies were raised in mouse and rabbit respectively. Anti-rabbit MSD-ST antibody was used for secondary antibody. ATXN3 recombinant protein was used for standards. The readouts were captured with 35 μL of MSD read buffer and multi-array 384-well high binding plates.

[3] = tested on: ATXN3-HiBiT protein; test: ATXN3 HiBiT assay (Nano Glo HiBiT luminescence); assay type: cell-based; conditions: Kelly-ATXN3-HiBiT cells, luminescence read out 48 h after addition of the compound
Excerpt: To monitor ATXN3 protein levels by luminescence, a Kelly-ATXN3-HiBiT cell line with homozygous knock-in of HiBiT at the C-terminus of the endogenous ATXN3 gene was used (knock-in of the HiBiT-tag coding sequence SEQ ID NO. 14: 5′[…]3′ into exon 11 of ATXN3 -position 1114 of ATXN3 RefSeq NM_004993.6). Manipulations of the Kelly-ATXN3-HiBiT cell line that result in downregulation of the ATXN3-HiBiT protein (through modulation of ATXN3-HiBiT pre-mRNA splicing) can be followed by monitoring the luminescence signal of the HiBiT tag using the Nano Glo HiBiT Lytic Detection System (Promega, #N3050). Kelly-ATXN3-HiBiT cells were maintained in RPMI 1640 w/Glutamax (Gibco, #61870010), 10% FBS (Sigma Aldrich, #F8687), 1% Penicillin/Streptomycin (Gibco, #15140-122) at 37° C., 5% CO2. To assess HiBiT-luminescence signal upon compound treatment, 2000 Kelly-ATXN3-HiBiT cells were seeded per well in 384 plate format. Compounds were added 24 h after seeding. ATXN3-HiBiT-luminescence signal was read out 48 h after addition of the compound using the Nano Glo HiBiT Lytic Detection System (Promega, #N3050) according to the manufacturer's instructions. To control for cell viability, an identically prepared sister plate was read out with the CellTiter-Glo® 2.0 Assay (Promega, #G9243) according to the manufacturer's instructions. Fold changes of ATXN3-HiBiT-luminescence and of CellTiter-Glo viability signals were calculated relative to a DMSO control condition.

CC#Cc1c(C2CCC2N)oc2c(NCc3cccs3)cc(Cl)nc12 (single isomer, unassigned) [Compound 50, 2-(2-aminocyclobutyl)-5-chloro-3-(prop-1-yn-1-yl)-N-(thiophen-2-ylmethyl)furo[3,2-b]pyridin-7-amine]
IC50 ([1]; Homo sapiens): 501 to 5000 nM

CC#Cc1c(C2CCC2N)oc2c(NCc3cccs3)cc(Cl)nc12 (single isomer, unassigned) [Compound 51, 2-(2-aminocyclobutyl)-5-chloro-3-(prop-1-yn-1-yl)-N-(thiophen-2-ylmethyl)furo[3,2-b]pyridin-7-amine]
IC50 [1]: 501 to 5000 nM

CC#Cc1c(C[C@H](C)N)oc2c(NCc3cccs3)cc(Cl)nc12 [Compound 1, 2-[(S)-2-aminopropyl]-5-chloro-3-(1-propynyl)-7-thenylamino-1-oxa-4-azaindene]
IC50 [2]: 101 to 500 nM
EC50 [3]: 101 to 500 nM
IC50 ([1]; Homo sapiens): 101 to 500 nM

CC#Cc1c(C[C@H](C)N)oc2c(NCc3ccco3)cc(Cl)nc12 [Compound 2, 2-[(S)-2-aminopropyl]-5-chloro-7-(furfurylamino)-3-(1-propynyl)-1-oxa-4-azaindene]
IC50 [2]: 101 to 500 nM
EC50 [3]: 101 to 500 nM
IC50 ([1]; Homo sapiens): 101 to 500 nM

CC#Cc1c(C[C@@H](N)CC(F)(F)F)oc2c(NCc3ccco3)cc(Cl)nc12 [Compound 3, 2-[(R)-2-amino-4,4,4-trifluorobutyl]-5-chloro-7-(furfurylamino)-3-(1-propynyl)-1-oxa-4-azaindene]
IC50 [2]: 101 to 500 nM
EC50 [3]: 101 to 500 nM
IC50 ([1]; Homo sapiens): 101 to 500 nM

CC#Cc1c(C[C@@H](N)CC(F)(F)F)oc2c(NCc3cccs3)cc(Cl)nc12 [Compound 4, 2-[(R)-2-amino-4,4,4-trifluorobutyl]-5-chloro-3-(1-propynyl)-7-thenylamino-1-oxa-4-azaindene]
IC50 [2]: 101 to 500 nM
EC50 [3]: 101 to 500 nM
IC50 ([1]; Homo sapiens): 101 to 500 nM

CC#Cc1c(C[C@@H](N)[C@H](C)F)oc2c(NCc3ccco3)cc(Cl)nc12 [Compound 5, 2-[(2R,3S)-2-amino-3-fluorobutyl]-5-chloro-7-(furfurylamino)-3-(1-propynyl)-1-oxa-4-azaindene]
IC50 [2]: 0.01 to 100 nM
EC50 [3]: 0.01 to 100 nM
IC50 ([1]; Homo sapiens): 0.01 to 100 nM

CC#Cc1c(C[C@@H](N)[C@H](C)F)oc2c(NCc3cccs3)cc(Cl)nc12 [Compound 6, 2-[(2R,3S)-2-amino-3-fluorobutyl]-5-chloro-3-(1-propynyl)-7-thenylamino-1-oxa-4-azaindene]
IC50 [2]: 0.01 to 100 nM
EC50 [3]: 0.01 to 100 nM
IC50 ([1]; Homo sapiens): 0.01 to 100 nM

C[C@H](F)[C@H](N)Cc1oc2c(NCc3ccco3)cc(Cl)nc2c1C#CC1CC1 [Compound 7, 2-[(2R,3S)-2-amino-3-fluorobutyl]-5-chloro-3-(2-cyclopropylethynyl)-7-(furfurylamino)-1-oxa-4-azaindene]
IC50 [2]: 101 to 500 nM
EC50 [3]: 101 to 500 nM
IC50 ([1]; Homo sapiens): 101 to 500 nM

C[C@H](F)[C@H](N)Cc1oc2c(NCc3cccs3)cc(Cl)nc2c1C#CC1CC1 [Compound 8, 2-[(2R,3S)-2-amino-3-fluorobutyl]-5-chloro-3-(2-cyclopropylethynyl)-7-thenylamino-1-oxa-4-azaindene]
IC50 [2]: 501 to 5000 nM
EC50 [3]: 101 to 500 nM
IC50 ([1]; Homo sapiens): 101 to 500 nM

C[C@H](N)Cc1oc2c(NCc3ccco3)cc(Cl)nc2c1C#CC1CC1 [Compound 9, 2-[(S)-2-aminopropyl]-5-chloro-3-(2-cyclopropylethynyl)-7-(furfurylamino)-1-oxa-4-azaindene]
IC50 [2]: 501 to 5000 nM
EC50 [3]: 501 to 5000 nM
IC50 ([1]; Homo sapiens): 501 to 5000 nM

C[C@H](N)Cc1oc2c(NCc3cccs3)cc(Cl)nc2c1C#CC1CC1 [Compound 10, 2-[(S)-2-aminopropyl]-5-chloro-3-(2-cyclopropylethynyl)-7-thenylamino-1-oxa-4-azaindene]
IC50 [2]: 501 to 5000 nM
EC50 [3]: 501 to 5000 nM
IC50 ([1]; Homo sapiens): 501 to 5000 nM

CC#Cc1c(C[C@@H](N)[C@H](C)F)oc2c(NCc3ccccc3)cc(Cl)nc12 [Compound 11, 2-[(2R,3S)-2-amino-3-fluorobutyl]-7-benzylamino-5-chloro-3-(1-propynyl)-1-oxa-4-azaindene]
IC50 [2]: 101 to 500 nM
EC50 [3]: 0.01 to 100 nM
IC50 ([1]; Homo sapiens): 0.01 to 100 nM

CC#Cc1c(C[C@@H](N)[C@H](C)F)oc2c(NCc3nccs3)cc(Cl)nc12 [Compound 12, 2-[(2R,3S)-2-amino-3-fluorobutyl]-5-chloro-3-(1-propynyl)-7-{[(1,3-thiazol-2-yl)methyl]amino}-1-oxa-4-azaindene]
IC50 [2]: 101 to 500 nM
EC50 [3]: 0.01 to 100 nM
IC50 ([1]; Homo sapiens): 0.01 to 100 nM

CC#Cc1c(C[C@@H](N)C2CC(F)(F)C2)oc2c(NCc3cccs3)cc(Cl)nc12 [Compound 15, 2-[(R)-2-amino-2-(3,3-difluorocyclobutyl)ethyl]-5-chloro-3-(1-propynyl)-7-thenylamino-1-oxa-4-azaindene]
IC50 [2]: 501 to 5000 nM
EC50 [3]: 501 to 5000 nM
IC50 ([1]; Homo sapiens): 501 to 5000 nM

CCC#Cc1c(C[C@H](C)N)oc2c(NCc3cccs3)cc(Cl)nc12 [Compound 16, 2-[(S)-2-aminopropyl]-3-(1-butynyl)-5-chloro-7-thenylamino-1-oxa-4-azaindene]
IC50 [2]: 101 to 500 nM
EC50 [3]: 101 to 500 nM
IC50 ([1]; Homo sapiens): 101 to 500 nM

C[C@H](N)Cc1oc2c(NCc3cccs3)cc(Cl)nc2c1C#CCF [Compound 19, 2-[(S)-2-aminopropyl]-5-chloro-3-(3-fluoro-1-propynyl)-7-thenylamino-1-oxa-4-azaindene]
IC50 [2]: 101 to 500 nM
EC50 [3]: 101 to 500 nM
IC50 ([1]; Homo sapiens): 101 to 500 nM

CC#Cc1c(C[C@@H](N)COC)oc2c(NCc3cccs3)cc(Cl)nc12 [Compound 21, 2-[(R)-2-amino-3-methoxypropyl]-5-chloro-3-(1-propynyl)-7-thenylamino-1-oxa-4-azaindene]
IC50 [2]: 101 to 500 nM
EC50 [3]: 0.01 to 100 nM
IC50 ([1]; Homo sapiens): 0.01 to 100 nM

CCC#Cc1c(C[C@H](C)N)oc2c(NCc3ccco3)cc(Cl)nc12 [Compound 22, 2-[(S)-2-aminopropyl]-3-(1-butynyl)-5-chloro-7-(furfurylamino)-1-oxa-4-azaindene]
IC50 [2]: 501 to 5000 nM
EC50 [3]: 501 to 5000 nM
IC50 ([1]; Homo sapiens): 101 to 500 nM

CC#Cc1cc(NCc2cccs2)c2oc(C[C@@H](N)C3CC(F)(F)C3)c(C#CC)c2n1 [Compound 23, 2-[(R)-2-amino-2-(3,3-difluorocyclobutyl)ethyl]-3,5-bis(1-propynyl)-7-thenylamino-1-oxa-4-azaindene]
IC50 [2]: 10000 to 40000 nM
EC50 [3]: 501 to 5000 nM
IC50 ([1]; Homo sapiens): 5000 to 10000 nM

CC#Cc1c(C[C@@H](N)C2CC2)oc2c(NCc3cccs3)cc(Cl)nc12 [Compound 24, 2-[(R)-2-amino-2-cyclopropylethyl]-5-chloro-3-(1-propynyl)-7-thenylamino-1-oxa-4-azaindene]
IC50 [2]: 501 to 5000 nM
EC50 [3]: 501 to 5000 nM
IC50 ([1]; Homo sapiens): 501 to 5000 nM

CC#Cc1cc(NCc2cccs2)c2oc(C[C@@H](N)C3CC3)c(C#CC)c2n1 [Compound 25, 2-[(R)-2-amino-2-cyclopropylethyl]-3,5-bis(1-propynyl)-7-thenylamino-1-oxa-4-azaindene]
IC50 [2]: 10000 to 40000 nM
EC50 [3]: 5000 to 10000 nM
IC50 ([1]; Homo sapiens): 10000 to 40000 nM

CC#Cc1c(C[C@@H](N)[C@H](C)F)oc2c(NCc3cccs3)c(F)c(Cl)nc12 [Compound 37, 2-[(2R,3S)-2-amino-3-fluorobutyl]-5-chloro-6-fluoro-3-(1-propynyl)-7-thenylamino-1-oxa-4-azaindene]
IC50 ([1]; Homo sapiens): 501 to 5000 nM

CC#Cc1c([C@H]2CCCC[C@@H]2N)oc2c(NCc3cccs3)cc(Cl)nc12 [Compound 49, 2-[(1S,2S)-2-aminocyclohexyl]-5-chloro-3-(1-propynyl)-7-thenylamino-1-oxa-4-azaindene]
IC50 ([1]; Homo sapiens): 0.01 to 100 nM

CC#Cc1c([C@H]2CC(F)(F)CC[C@@H]2N)oc2c(NCc3cccs3)cc(Cl)nc12 [Compound 52, 2-[(1S,2S)-2-amino-5,5-difluorocyclohexyl]-5-chloro-3-(1-propynyl)-7-thenylamino-1-oxa-4-azaindene]
IC50 ([1]; Homo sapiens): 0.01 to 100 nM
